The nature of series [1]: Whole Blood Stability Assay (mouse whole blood). The class given is in vitro ADME. Conditions: CD-1 mouse blood, EDTA-K2, final conc. 2 μM, 37° C., 0-120 min; for half-life at 2 μM: male, fresh whole blood, read-out: Mouse Whole Blood Stability t1/2. The essentials: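 Compound at 2 μM final was incubated at 37 °C in fresh EDTA-K2 blood from male CD-1 mice. Samples at 0, 10, 30, 60 and 120 min were protein-precipitated with acetonitrile and analysed by LC-MS/MS. % remaining was derived from analyte/internal-standard peak area ratios.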

The nature of series [2]: Plasma Stability Assay (human plasma). Conditions: both sexes; pooled human plasma, heparin, final conc. 2 μM, 37° C., 0-120 min; read-out: Human Plasma Stability t1/2. The class given is in vitro ADME. An outline of the steps: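 Compound at 2 μM final in pooled heparinised plasma (3 male, 3 female), incubated at 37° C with sampling at 0, 10, 30, 60 and 120 min. Acetonitrile stop, LC-MS/MS; % remaining from analyte/internal-standard peak area ratio relative to T0.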

Consider `CCc1c(F)ccc2cc(OC(=O)N3CCC[C@H](C)C3)cc(N3CCc4c(nc(OC[C@@]56CCCN5C[C@H](F)C6)nc4N4CCC[C@]5(C4)NC(=O)NC5=O)C3)c12` [Example 59, 4-(4-((R)-2,4-dioxo-1,3,7-triazaspiro[4.5]decan-7-yl)-2-(((2R,7aS)-2-fluorotetrahydro-1H-pyrrolizin-7a(5H)-yl)methoxy)-5,8-dihydropyrido[3,4-d]pyrimidin-7(6H)-yl)-5-ethyl-6-fluoronaphthalen-2-yl (S)-3-methylpiperidine-1-carboxylate], for which the half-life at 2 μM in series [1] and in series [2] was over 289 min each time.

As for `CCc1c(F)ccc2cc(OC(=O)N3CCOCC3)cc(N3CCc4c(nc(OC[C@@]56CCCN5C[C@H](F)C6)nc4N4CCC[C@]5(C4)NC(=O)NC5=O)C3)c12` [Example 60, 4-(4-((R)-2,4-dioxo-1,3,7-triazaspiro[4.5]decan-7-yl)-2-(((2R,7aS)-2-fluorotetrahydro-1H-pyrrolizin-7a(5H)-yl)methoxy)-5,8-dihydropyrido[3,4-d]pyrimidin-7(6H)-yl)-5-ethyl-6-fluoronaphthalen-2-yl morpholine-4-carboxylate], the half-life at 2 μM in series [1] is 79 min; in series [2], over 289 min.

For the compound `CCc1c(F)ccc2cc(OC(=O)C3(C)CCC3)cc(N3CCc4c(nc(OC[C@@]56CCCN5C[C@H](F)C6)nc4N4CCC[C@]5(C4)NC(=O)NC5=O)C3)c12` [Example 61, 4-(4-((R)-2,4-dioxo-1,3,7-triazaspiro[4.5]decan-7-yl)-2-(((2R,7aS)-2-fluorotetrahydro-1H-pyrrolizin-7a(5H)-yl)methoxy)-5,8-dihydropyrido[3,4-d]pyrimidin-7(6H)-yl)-5-ethyl-6-fluoronaphthalen-2-yl 1-methylcyclobutane-1-carboxylate], the half-life at 2 μM was 2 min in series [1] and over 289 min in series [2].

With `CCc1c(F)ccc2cc(OC(=O)C3(C)COC3)cc(N3CCc4c(nc(OC[C@@]56CCCN5C[C@H](F)C6)nc4N4CCC[C@]5(C4)NC(=O)NC5=O)C3)c12` [Example 62, 4-(4-((R)-2,4-dioxo-1,3,7-triazaspiro[4.5]decan-7-yl)-2-(((2R,7aS)-2-fluorotetrahydro-1H-pyrrolizin-7a(5H)-yl)methoxy)-5,8-dihydropyrido[3,4-d]pyrimidin-7(6H)-yl)-5-ethyl-6-fluoronaphthalen-2-yl 3-methyloxetane-3-carboxylate], in series [1], the “Mouse Whole Blood Stability t1/2” value came to 1 min. Further, the half-life at 2 μM in series [2] is 38 min.

For the compound `CCc1c(F)ccc2cc(OC(=O)C34CC5CC(CC(C5)C3)C4)cc(N3CCc4c(nc(OC[C@@]56CCCN5C[C@H](F)C6)nc4N4CCC[C@]5(C4)NC(=O)NC5=O)C3)c12` [Example 63, 4-(4-((R)-2,4-dioxo-1,3,7-triazaspiro[4.5]decan-7-yl)-2-(((2R,7aS)-2-fluorotetrahydro-1H-pyrrolizin-7a(5H)-yl)methoxy)-5,8-dihydropyrido[3,4-d]pyrimidin-7(6H)-yl)-5-ethyl-6-fluoronaphthalen-2-yl (3r,5r,7r)-adamantane-1-carboxylate], the half-life at 2 μM in series [1] was 13 min; in series [2] it was over 289 min.

With `CCc1c(F)ccc2cc(OC(=O)C3CCC3)cc(N3CCc4c(nc(OC[C@@]56CCCN5C[C@H](F)C6)nc4N4CCC[C@]5(C4)NC(=O)NC5=O)C3)c12` [Example 64, 4-(4-((R)-2,4-dioxo-1,3,7-triazaspiro[4.5]decan-7-yl)-2-(((2R,7aS)-2-fluorotetrahydro-1H-pyrrolizin-7a(5H)-yl)methoxy)-5,8-dihydropyrido[3,4-d]pyrimidin-7(6H)-yl)-5-ethyl-6-fluoronaphthalen-2-yl cyclobutanecarboxylate], the half-life at 2 μM in series [1] came out at 2 min; in series [2], 33 min.

Turning to `CCc1c(F)ccc2cc(OC(=O)C34CCC(CC3)CC4)cc(N3CCc4c(nc(OC[C@@]56CCCN5C[C@H](F)C6)nc4N4CCC[C@]5(C4)NC(=O)NC5=O)C3)c12` [Example 66, 4-(4-((R)-2,4-dioxo-1,3,7-triazaspiro[4.5]decan-7-yl)-2-(((2R,7aS)-2-fluorotetrahydro-1H-pyrrolizin-7a(5H)-yl)methoxy)-5,8-dihydropyrido[3,4-d]pyrimidin-7(6H)-yl)-5-ethyl-6-fluoronaphthalen-2-yl bicyclo[2.2.2]octane-1-carboxylate], the half-life at 2 μM in series [1] was 7 min; in series [2], over 289 min.

Turning to `CCc1c(F)ccc2cc(OC(=O)C34CCC(C3)C4)cc(N3CCc4c(nc(OC[C@@]56CCCN5C[C@H](F)C6)nc4N4CCC[C@]5(C4)NC(=O)NC5=O)C3)c12` [Example 67, 4-(4-((R)-2,4-dioxo-1,3,7-triazaspiro[4.5]decan-7-yl)-2-(((2R,7aS)-2-fluorotetrahydro-1H-pyrrolizin-7a(5H)-yl)methoxy)-5,8-dihydropyrido[3,4-d]pyrimidin-7(6H)-yl)-5-ethyl-6-fluoronaphthalen-2-yl bicyclo[2.1.1]hexane-1-carboxylate], the “Mouse Whole Blood Stability t1/2” value in series [1] came to 1 min. The half-life at 2 μM in series [2] was determined as 267 min.

The values above are taken from patent US20250376483A1, “PRODRUGS OF PAN-KRAS INHIBITORS” (Mirati Therapeutics, Inc., priority 2022, published 2025).
